In patent publication US12522562B2, “Intestine-specific partial agonists of farnesoid X receptor and uses thereof” (EWHA DrugDesignHouse Co., Ltd., priority 2022, dated 2026):
Where two headings read alike, the source gives them in different places. Marks after values point to notes of the source that are not given here.

Legend:
PPARγ = target: T1, PPARγ (Homo sapiens, UniProt P37231); experiment: Nuclear receptor selectivity panel (PathHunter NHR protein interaction assay); details: read-out: % max. rel. efficacy at 100 uM, 100 μM; relative to troglitazone
T1 sequence (P37231 1-505): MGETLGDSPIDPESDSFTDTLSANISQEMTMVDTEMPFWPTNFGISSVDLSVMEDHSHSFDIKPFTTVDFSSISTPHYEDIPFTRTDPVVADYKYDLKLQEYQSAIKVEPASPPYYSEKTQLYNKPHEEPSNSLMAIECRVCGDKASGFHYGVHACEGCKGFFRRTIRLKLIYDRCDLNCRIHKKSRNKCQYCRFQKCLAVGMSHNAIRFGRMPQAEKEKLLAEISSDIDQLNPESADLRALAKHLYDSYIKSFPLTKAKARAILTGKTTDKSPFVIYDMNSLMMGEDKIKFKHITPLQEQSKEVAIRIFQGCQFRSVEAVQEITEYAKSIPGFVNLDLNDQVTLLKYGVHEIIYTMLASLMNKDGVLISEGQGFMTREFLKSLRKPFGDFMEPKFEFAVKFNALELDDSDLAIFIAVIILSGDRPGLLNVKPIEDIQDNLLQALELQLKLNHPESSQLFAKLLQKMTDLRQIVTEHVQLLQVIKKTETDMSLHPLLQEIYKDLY

FXR = target: T2, FXR (Homo sapiens, UniProt Q96RI1); experiment: PathHunter NHR protein interaction assay, agonist mode (FXR)
T2 sequence (Q96RI1 1-486): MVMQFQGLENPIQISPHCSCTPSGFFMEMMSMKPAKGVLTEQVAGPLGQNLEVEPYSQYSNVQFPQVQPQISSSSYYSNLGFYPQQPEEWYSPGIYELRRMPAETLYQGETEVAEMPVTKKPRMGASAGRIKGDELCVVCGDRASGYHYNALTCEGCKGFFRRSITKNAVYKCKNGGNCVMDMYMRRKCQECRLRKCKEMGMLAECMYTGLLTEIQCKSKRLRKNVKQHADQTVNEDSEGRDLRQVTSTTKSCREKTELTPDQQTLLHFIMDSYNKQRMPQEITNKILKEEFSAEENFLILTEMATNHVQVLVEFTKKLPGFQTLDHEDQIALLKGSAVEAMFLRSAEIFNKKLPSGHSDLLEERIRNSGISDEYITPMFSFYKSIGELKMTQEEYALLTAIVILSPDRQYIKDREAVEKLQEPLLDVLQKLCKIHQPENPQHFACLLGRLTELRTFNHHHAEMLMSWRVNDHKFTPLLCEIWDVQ
Procedure: PathHunter® CHO-K1 FXR protein interaction cells were expanded from freezer stocks according to standard procedures. Cells were seeded in a total volume of 20 μL into white walled, 384-well microplates and incubated at 37° C. for the appropriate time prior to testing. Assay media contained charcoal-dextran filtered serum to reduce the level of hormones present. For agonist determination, cells were incubated with sample to induce response. […] For antagonist determination, cells were pre-incubated with antagonist followed by agonist challenge at the EC80 concentration. […] Microplates were read following signal generation with a PerkinElmer Envision™ instrument for chemiluminescent signal detection. Compound activity was analyzed using CBIS data analysis suite (ChemInnovation, CA). For agonist mode assays, percentage activity was calculated using the following formula: % Activity=100%×(mean RLU of test sample−mean RLU of vehicle control)/(mean MAX control ligand−mean RLU of vehicle control).
In this assay, two weakly complementing fragments of the β-galactosidase are expressed within stably transfected cells. The complementing fragments of the β-galactosidase are translationally fused to the C-terminus of a full-length FXR and to the steroid receptor coactivator peptide (SRCP), respectively. When bound by ligand, the FXR will migrate to the nucleus and recruit the SRCP domain, whereby complementation occurs, generating a unit of active β-galactosidase and production of chemiluminescent signal. Thus, measurement of chemiluminescent signal directly reflects FXR-coactivator interaction.

Erα = target: T3, Erα (Homo sapiens, UniProt P03372); experiment: Nuclear receptor selectivity panel (PathHunter NHR protein interaction assay); details: relative to 17β-estradiol
T3 sequence (P03372 1-595): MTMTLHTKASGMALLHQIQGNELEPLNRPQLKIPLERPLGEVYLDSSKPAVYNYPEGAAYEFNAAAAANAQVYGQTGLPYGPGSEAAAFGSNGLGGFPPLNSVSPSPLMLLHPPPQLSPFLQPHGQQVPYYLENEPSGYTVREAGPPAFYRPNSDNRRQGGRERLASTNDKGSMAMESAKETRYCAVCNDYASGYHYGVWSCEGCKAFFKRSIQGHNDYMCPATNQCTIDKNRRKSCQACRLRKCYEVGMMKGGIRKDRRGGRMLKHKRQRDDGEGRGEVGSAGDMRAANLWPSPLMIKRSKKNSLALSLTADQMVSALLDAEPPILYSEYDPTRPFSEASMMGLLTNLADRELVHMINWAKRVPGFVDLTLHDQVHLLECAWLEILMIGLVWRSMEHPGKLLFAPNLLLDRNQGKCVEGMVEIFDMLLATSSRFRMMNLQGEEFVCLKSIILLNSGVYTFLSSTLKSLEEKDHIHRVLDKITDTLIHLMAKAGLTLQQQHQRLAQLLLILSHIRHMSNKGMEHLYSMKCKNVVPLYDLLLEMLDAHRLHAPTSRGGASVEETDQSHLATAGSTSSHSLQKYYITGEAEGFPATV

LXRβ = target: T4, LXRβ (Homo sapiens, UniProt P55055); experiment: as above; details: read-out: % max. rel. efficacy at 100 uM, 100 μM; relative to TO901317
T4 sequence (P55055 1-460): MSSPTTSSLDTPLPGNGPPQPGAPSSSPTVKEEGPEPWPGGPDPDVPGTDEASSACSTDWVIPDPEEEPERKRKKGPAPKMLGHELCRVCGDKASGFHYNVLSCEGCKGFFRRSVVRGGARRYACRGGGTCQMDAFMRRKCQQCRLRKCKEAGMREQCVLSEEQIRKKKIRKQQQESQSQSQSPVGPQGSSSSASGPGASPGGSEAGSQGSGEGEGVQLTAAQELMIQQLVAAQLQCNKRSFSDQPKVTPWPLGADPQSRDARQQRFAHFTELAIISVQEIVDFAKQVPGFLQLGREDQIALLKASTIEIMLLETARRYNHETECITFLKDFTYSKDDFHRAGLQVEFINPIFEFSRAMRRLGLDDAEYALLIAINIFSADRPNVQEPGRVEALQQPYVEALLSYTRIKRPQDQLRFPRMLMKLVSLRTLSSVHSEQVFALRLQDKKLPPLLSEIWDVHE

- Emax at 100 µM (PPARγ): < 3%
- EC50 (FXR): 1 µM
- EC50 (FXR; Table 2, 5 concentrations, 3-fold dilution from 3.3 μM (GW4064: 10 conc. from 10 μM), one experiment in duplicate, NA = inactive at 3.3 μM): 0.8 µM
- EC50 (FXR; Table 5, mean ± SEM of two or three independent experiments in duplicate): 0.8 ± 0.1 µM
- % max. rel. efficacy (FXR; Table 5, relative to GW4064, mean ± SEM of two or three independent experiments in duplicate): 40 ± 8^b %
- Emax at 100 µM (FXR; read-out: % max. rel. efficacy at 100 uM, Table 3, 100 μM, relative to GW4064): 47%
- Emax (FXR; read-out: % max. rel. efficacy, Table 2, relative to GW4064, top conc. 3.3 μM, one experiment in duplicate): 24%
- Emax (FXR; read-out: % max. rel. efficacy, Table 4, relative to GW4064, top conc. 3.3 μM, one experiment in duplicate): 47%
- Emax (FXR; read-out: % max. rel. efficacy, Table 5, relative to GW4064, mean ± SEM of two or three independent experiments in duplicate): 40 ± 8%
- % max. rel. efficacy at 100 uM (Erα): 1%
- Emax at 100 µM (LXRβ): < 3%
Structure (SMILES): COC(=O)/C=C/c1cccc(N(Cc2ccc(-c3ccc(N(C)C)cc3)c(C#N)c2)C(=O)C2CCCCC2)c1 [Example 4, (E)-3-(3-((2-cyano-4′-dimethylaminobiphenyl-4-ylmethyl)cyclohexanecarbonylamino)phenyl)acrylic Acid Methyl Ester]
